Data taken from US11446281B2, “Anti-inflammatory composition comprising acylhydrazone derivative” (KOREA RESEARCH INSTITUTE OF BIOSCIENCE AND BIOTECHNOLOGY, priority 2018, dated 2022).

Columns and labels:
K14 and K1 mRNA = assay: qPCR of epidermal hyperplasia markers in ear skin tissue of dermatitis-induced mice; format: in vivo, mouse; conditions: FIG. 8A and 8B
From the text: When dermatitis is induced, pathological symptoms such as epidermal hyperplasia which thickens the skin are induced.

[1] = tested on: IL-4, IL-13 and IL-2 mRNA; assay: qPCR of inflammatory cytokine mRNA in ear skin tissue of dermatitis-induced mice; format: in vivo, mouse; conditions: FIG. 6A to 6C
From the text: Inflammatory cytokines most associated with the development of dermatitis, such as atopic dermatitis are known as IL-4 and IL-13 which are secreted primarily from Th2 T cells. In order to further identify the anti-inflammatory effect of the acylhydrazone derivative compound in mice with dermatitis induced by oxazolone in Example 4, an ear skin tissue was collected to quantify the mRNA levels of IL-2 secreted from Th2 T cells, along with those of IL-4 and IL-13.
Specifically, ear skin tissues were collected from dermatitis-induced mice prepared in Example 4 and crushed using a tissue disruptor. The crushed tissue powder was dissolved in a solution of Trizol reagent (Sigma company), and RNA was extracted using an RNeasy mini kit (Qiagen company). After reverse transcription of the extracted RNA with a cDNA using ImProm-II™ Reverse Transcription kit (Promega company), a level of cytokines present in a skin tissue was measured using a CFX96 Real-Time PCR Detection System (Bio-Rad company) via a qPCR method.

[2] = tested on: K14 (Keratin 14), K1 (Keratin 1), FLG (Filaggrin gene) mRNA; assay: qPCR of epidermal hyperplasia markers in back skin tissue of dermatitis-induced mice; format: in vivo, HR-1 (hairless) mouse; conditions: FIG. 3B to 3D
From the text: When dermatitis is induced, a pathological symptom such as epidermal hyperplasia which thickens the skin is induced.

[3] = tested on: ear skin tissue of dermatitis-induced mice; assay: Histopathological analysis (Hematoxylin and Eosin) of ear skin tissue; format: in vivo, mouse; conditions: H&E staining, FIG. 5
From the text: For pathological observation of the skin after completion of the application experiment, an ear skin tissue of each mouse was collected and stained with Hematoxylin and Eosin.

[4] = tested on: mouse model having dermatitis induced by oxazolone (back skin); assay: Visual identification of dermatitis inhibition, mice with oxazolone-induced dermatitis on back; format: in vivo, HR-1 (hairless) mouse; conditions: 150 μl at 500 nM applied 5 times a week, total 19 times, FIG. 1
Protocol: Specifically, 150 μl of 5% oxazolone (4-ethoxymethylene-2-phenyl-2-oxazolin-5-one) was applied to a back skin of a 6-week-old HR-1 (hairless) mouse, and then 150 μl of oxazolone (4-ethoxymethylene-2-phenyl-2-oxazolin-5-one) diluted into 0.1% was applied thereto 3 times a week, 11 times in total. Thus, the back skin inflammatory reaction was induced. Thereafter, 150 μl of the acylhydrazone derivative compound at a concentration of 500 nM was applied thereto 5 times a week, a total of 19 times. […] A negative control treated with only ethanol as a solvent and a positive control treated with only oxazolone were reflected in the test. The number of mice in each test group was maintained at 10 or more, and the experiment was repeated twice.

[5] = tested on: phosphorylation of p65 (RelA), NF-κB signaling pathway; assay: Western blot of phosphorylated p65 in RAW macrophage cell line (NF-κB signaling pathway); format: cell-based, mice; conditions: RAW cells, with NF-κB inducing factors (tumor necrosis factor-α, lipopolysaccharide, or the like), 12 to 24 hours; Western blotting; FIG. 9
Protocol: To further identify the mechanism of action involved in the anti-inflammatory effect by the acylhydrazone derivative compound, RAW cell lines as mice-derived macrophage immune cell lines were incubated. We observed the effect of the compound according to the present disclosure on NF-κB (nuclear factor kappa-light-chain-enhancer of activated B cells) signaling pathway involved in the production of inflammatory cytokines. The NF-κB signaling pathway is involved in inflammatory reactions. In particular, it is known that when phosphorylation of p65 (RelA) is induced, phosphorylated p65 moves to the nucleus of immune cells and induces an expression of cytokines that cause inflammatory reactions.
Specifically, after incubating a predetermined amount of RAW cells (5×10^5 to 10×10^5 cells/well for a 6-well plate) in DMEM medium (containing 10% fetal calf serum), WCI-1004, WCI-1015, and WCI-1031 compounds together with factors (tumor necrosis factor-α, lipopolysaccharide, or the like) inducing the NF-κB signal transduction were applied thereto for 12 to 24 hours. A proteolytic inhibitor and a dephosphorylation inhibitor was added to RIPA lysis and extraction buffer (Thermofisher company). Protein was extracted from the RAW cells. The Western blotting process used a method commonly used in the technical field to which the present disclosure belongs, and an antibody specific to phosphorylated p65 employed a product from Cell Signaling Technology company.

[6] = tested on: IL-4, IL-13 and IL-2 mRNA; assay: qPCR of inflammatory cytokine mRNA in back skin tissue of dermatitis-induced mice; format: in vivo, HR-1 (hairless) mouse; conditions: FIG. 2A to 2C; for inflammatory cytokine expression compared with Cyclosporine A group: comparison with test group treated with Cyclosporine A; for expression level of the inflammatory cytokine (IL-4, IL-13, IL-2 mRNA) in skin tissue: vs positive control treated with only oxazolone, qPCR
From the text: Inflammatory cytokines most associated with development of dermatitis such as atopic dermatitis are known as IL-4 and IL-13 which are secreted primarily from Th2 T cells. To further identify the anti-inflammatory effect of the acylhydrazone derivative compounds in mice in which dermatitis is induced by oxazolone. A mRNA level of IL-2 as secreted from Th2 T cells and mRNA levels of IL-4 and IL-13 as the cytokines most closely related to the development of dermatitis in the inflammatory tissue were quantified.
Specifically, a skin tissue was collected from the dermatitis-induced mice produced in Example 1 and crushed using a tissue disruptor. The crushed tissue powder was dissolved in a solution of Trizol reagent (Sigma company), and RNA was extracted therefrom using an RNeasy mini kit (Qiagen company). The extracted RNA was reverse transcribed into cDNA using an ImProm-II™ Reverse Transcription kit (Promega company). Then, using a CFX96™ Real-Time PCR Detection System (Bio-Rad company), levels of the cytokines present in the skin tissue was measured based on a qPCR (quantitative PCR) method.

[7] = tested on: mouse model having dermatitis induced by oxazolone (ear); assay: Visual identification of dermatitis inhibition, mice with oxazolone-induced dermatitis in ear; format: in vivo; conditions: 20 μl at 500 nM, total 5 times, 30 minutes after oxazolone, FIG. 4
Protocol: Specifically, 150 μl of 3% concentration of oxazolone was applied to an abdominal skin of a 6-week-old mouse to induce an immune response. 20 μl of the same compound diluted to 0.5% concentration was applied to the mouse's ear, total 5 times a day to induce an inflammatory reaction. Thereafter, at 30 minutes after the oxazolone application, 20 μl of each of the acylhydrazone derivative compounds was applied thereto at a concentration of 500 nM and total 5 times.
Moreover, the negative control treated only with ethanol as a solvent and the positive control treated only with oxazolone were reflected in the experiment. The number of mice in each test group was maintained at 10 or more, and the experiment was repeated twice.

| SMILES | expression levels of K14 and K1 (epithelial hyperplasia) (K14 and K1 mRNA) | level of cytokine expression (IL-4, IL-13, IL-2 mRNA) in ear skin tissue [1] | mRNA expression levels of K14, K1 and FLG (epithelial hyperplasia) [2] | entire thickness of the skin [3] | thickness of the epithelium [3] | skin condition (visual), skin inflammatory response [4] | phosphorylation of p65 (RelA) [5] | inflammatory cytokine expression compared with Cyclosporine A group [6] | expression level of the inflammatory cytokine (IL-4, IL-13, IL-2 mRNA) in skin tissue [6] | skin condition (visual), skin inflammatory reaction [7] |
| --- | --- | --- | --- | --- | --- | --- | --- | --- | --- | --- |
| CCOC(=O)Cn1c(C)c(/C=N/NC(=O)c2cc3c(ccc4ccccc43)o2)c2ccccc21 [WCI-1004, ethyl(2-methyl-3(E)-{[(naphtho[2,1-b]furan-2-ylcarbonyl)hydrazono]methyl}-1H-indole-1-yl)acetate] | restored to a normal level | 50 % of the cytokine expression level of the positive control | restored to normal levels | reduced to a thickness very similar to that of the negative control | reduced to a thickness very similar to that of the negative control | skin conditions very similar to those of the negative control | effectively suppressed | lower levels of inflammatory cytokine expression than that in the skin tissue of the test group treated with Cyclosporine A | significantly reduced | a skin condition very similar to that of the negative control |
| Cc1c(/C=N/NC(=O)c2cc3c(ccc4ccccc43)o2)c2ccccc2n1C [WCI-1015] | restored to a normal level | 50 % of the cytokine expression level of the positive control | restored to normal levels | reduced to a thickness very similar to that of the negative control | reduced to a thickness very similar to that of the negative control | skin conditions very similar to those of the negative control | effectively suppressed | lower levels of inflammatory cytokine expression than that in the skin tissue of the test group treated with Cyclosporine A | significantly reduced | a skin condition very similar to that of the negative control |
| COC(=O)Cn1c(C)c(/C=N/NC(=O)c2cc3c(ccc4ccccc43)o2)c2ccccc21 [WCI-1031, methyl(E)-2-(2-methyl-3-((2-(naphtho[2,1-b]furan-2-carbonyl)hydrazono)methyl)-1H-indole-1-yl)acetate] | restored to a normal level | 50 % of the cytokine expression level of the positive control | restored to normal levels | reduced to a thickness very similar to that of the negative control | reduced to a thickness very similar to that of the negative control | skin conditions very similar to those of the negative control | effectively suppressed | lower levels of inflammatory cytokine expression than that in the skin tissue of the test group treated with Cyclosporine A | significantly reduced | a skin condition very similar to that of the negative control |
